Experimental data as given in article PMC7719179, “Small molecule inhibition of Dynamin-dependent endocytosis targets multiple niche signals and impairs leukemia stem cells” (Nature Communications, 2020).
Values joined by “and” are separate entries in the source; they are usually repeats but may differ in a detail not shown here. Equal values may be shown once. Read-outs that look alike come from different tables or passages of the source.

How the values were obtained:
[1] = Relative viability of human CD34+ hematopoietic stem and progenitors, 48 h; assay type: cell-based; parameters: Relative % viable cells: dose or concentration left out as unconfirmed
Protocol: (§1) Supplementary Figure 7. Efficacy of Dynole 34-2 for human T-ALL. a, b, Relative viability (%) of patient-derived (a ) ETP- ALL1 and (b) T-ALL 2 xenografts treated with increasing concentration of Dynole 34-2 for 48 hours. Viability was normalized to vehicle-treated cells with experiments performed in duplicates. Human CD34-positive (CD34+) hematopoietic stem and progenitors from healthy donors (N=3) were used as controls. […]

[2] = test system: Human CD34-positive (CD34+) hematopoietic stem and progenitors; experiment: as above; assay type: cell-based; parameters: Relative % viable cells: dose or concentration left out as unconfirmed; conditions: 48 h
Protocol: as §1

[3] = test system: pSTAT5 in patient-derived ETP-ALL and T-ALL cells; experiment: IL-7-induced pSTAT5 in human ETP-ALL and T-ALL xenograft cells; assay type: cell-based; conditions: for pSTAT5 relative expression, FOLD: fold over unstimulated
Protocol: Splenocytes from secondary xenografts were processed as previously described. […] Flow cytometric analysis of surface IL-7R levels and intracellular levels of pSTAT5 were performed as described in the FACS analysis section. For activation of NOTCH1-mediated signalling, 5 × 10^5 rested leukemia cells were seeded on OP9-DL1 stromal cells. Co-culture on OP9 stromal cells was used as a negative control. After 16 h of co-culture, leukemia cells were washed twice using cold PBS 1×. Flow cytometric analysis of NOTCH1 expression and intracellular levels of HES1 were performed as described in the FACS analysis section.

[4] = test system: pSTAT5 and pERK in AML01-307 and AML18 patient-derived cells; experiment: pSTAT5 and pERK in AML01-307 and AML18 cells harvested from treated recipients; assay type: in vivo, human
Protocol: (§2) Phosphoflow analysis was performed as previously described. Briefly, 2 × 10^6 cells stained for surface markers were subsequently resuspended into PBS 1× + 4% v/v paraformaldehyde and incubated for 10 min at 4 °C for fixation. Fixed cells were washed twice using PBS 1×, then resuspended in pre-chilled at −20 °C Perm Buffer III (BD Pharmingen) and incubated 30 min at 4 °C for permeabilization. Cells were washed twice using PBS 1× and incubated overnight at 4 °C in PBS 1× + 2% v/v fetal calf serum (FCS) with Cell Signalling purified antibodies (Genesearch Pty Ltd, Arundel QLD, Australia) against pSTAT5 (Tyr694; #9359), phospho-p38 MAPK (Thr180/Tyr182; #4511), phospho-p44/42 (Erk1/2; #9102), phospho-S6 (Ser235/236; #4856) and phospho-Akt (Ser473; #9271) or isotype control. For intracellular HES1 detection, cells stained for surface markers were subsequently fixed and permeabilized using the BD Cytofix/Cytoperm^TM Kit and incubated overnight at 4 °C in PBS 1× + 2% v/v FCS with a purified antibody against HES1 (D6PU; #11988, Cell Signalling) or isotype control. After staining with primary antibodies for phosphoflow or intracellular detection, cells were incubated in permeabilization buffer with donkey Alexa Fluor 488-conjugated anti-rabbit secondary antibody (A-21206, lot #1910751, Molecular Probes, Invitrogen) or goat Alexa Fluor 546-conjugated anti-rabbit secondary antibody (A-11035, lot #1904467, Molecular Probes, Invitrogen) for 1 h on ice, and washed twice in PBS 1×. Fluorescence-activated cell sorting (FACS) analysis was performed using LSRII and LSR Fortessa cytometers, following the gating strategies described in Supplementary Fig. 11. Cell sorting was performed with a FACSAria or BD Influx.
(§3) Patient-derived xenograft models were established as previously described[97],[98]. […] For transplantation assays, 10^6 splenocytes harvested from successfully engrafted primary human ETP-ALL or T-ALL xenografts were injected into nonobese diabetic/severe combined immunodeficient (NOD.Cg-Prkdc^scid, also termed NOD/SCID) or NOD/SCID/Il2rg^tm1wjl/SzJ (NSG) mice[99]. Moreover, 1.5 × 10^6 cells splenocytes harvested from successfully engrafted patient-derived AML xenografts were injected into nonobese diabetic/severe immunodeficient (NOD.Cg-Rag1^tm1MomIl2rg^tm1wjl/SzJ, also termed NRG) mice expressing human IL-3, human GM-CSF and human SCF from the SGM3 triple transgene (NRGS)[100]. Engraftment into recipients was monitored by FACS analysis of peripheral blood as previously described. […] The in vivo efficacy of Dynole 34-2 was assessed 24 h after the last injection by FACS analysis and immunohistochemistry as described in Supplementary Methods. […]
assessed by flow cytometry. […]

[5] = test system: pSTAT5 and HES1 in ETP12 and ALL8 patient-derived cells; experiment: pSTAT5 and HES1 in ETP12 and ALL8 cells harvested from treated recipients; assay type: in vivo, human
Protocol: as §2, §3

`CCCCCCCCNC(=O)C(C#N)=Cc1cn(CCCN(C)C)c2ccccc12` [Dynole 34-2, 2-Cyano-N-octyl-3-(1-(3-dimethylaminopropyl)-1H-indol-3-yl)-acrylamide] gave a viability at 48 h, 0.04 mM ([1]; CD34, dose 0.04 mM, read-out: Relative % viable cells) of 99.5%, a viability at 48 h, 0.2 mM ([1]; CD34, dose 0.2 mM, read-out: Relative % viable cells) of 99.5% and a viability at 48 h, 0.04 mM ([1]; Relative % viable cells) of 99.4%. For the same compound, the viability at 48 h, 0.2 mM ([1]; Relative % viable cells) was 98.9%, the “Relative % viable cells” value [2] was 98.8% and the “pSTAT5 relative expression, MFI” value ([3]; ALL8) was 3715 MFI and 3714 MFI. For the same compound, the “pSTAT5 relative expression, FOLD” value ([3]; ALL8) was 1.22 FOLD, the “pSTAT5 relative expression, MFI” value ([3]; ALL16) was 2090 MFI and 2194 MFI and the “pSTAT5 relative expression, FOLD” value ([3]; ALL16) was 0.95 FOLD and 0.91 FOLD. For the same compound, the “pSTAT5 relative expression, MFI” value ([3]; ALL29) was 3568 MFI and 3339 MFI, the “pSTAT5 relative expression, FOLD” value ([3]; ALL29) was 1.36 FOLD and 1.45 FOLD and the “pSTAT5 relative expression, MFI” value ([3]; ALL31) was 2246 MFI and 2071 MFI. For the same compound, the “pSTAT5 relative expression, FOLD” value ([3]; ALL31) was 1.23 FOLD and 1.34 FOLD, the “pSTAT5 relative expression, MFI” value ([3]; ALL33) was 2163 MFI and 2294 MFI and the “pSTAT5 relative expression, FOLD” value ([3]; ALL33) was 1.35 FOLD and 1.27 FOLD. For the same compound, the “pSTAT5 relative expression, MFI” value ([3]; ETP1) was 6780 MFI and 6557 MFI, the “pSTAT5 relative expression, FOLD” value ([3]; ETP1) was 2.05 FOLD and 2.11 FOLD and the “pSTAT5 relative expression, MFI” value ([3]; ETP5) was 3059 MFI and 3334 MFI. For the same compound, the “pSTAT5 relative expression, FOLD” value ([3]; ETP5) was 1.58 FOLD and 1.45 FOLD, the “pSTAT5 relative expression, MFI” value ([3]; ETP8) was 6837 MFI and 6719 MFI and the “pSTAT5 relative expression, FOLD” value ([3]; ETP8) was 2.21 FOLD and 2.25 FOLD. The “pSTAT5 relative expression, MFI” value ([3]; ETP12) was 6017 MFI and 6210 MFI, the “pSTAT5 relative expression, FOLD” value ([3]; ETP12) was 2.47 FOLD and 2.39 FOLD and the “pSTAT5 relative expression, MFI” value ([3]; ETP13) was 7147 MFI and 4013 MFI. The “pSTAT5 relative expression, FOLD” value ([3]; ETP13) was 0.99 FOLD and 1.76 FOLD, the “pSTAT5 relative expression, MFI” value ([3]; ETP14) was 7024 MFI and 6660 MFI and the “pSTAT5 relative expression, FOLD” value ([3]; ETP14) was 1.46 FOLD and 1.54 FOLD. The pSTAT5 protein levels ([3]; immature and mature subtypes of human T-ALL, 1 h pre-treatment, result in words) was “significantly decreased”, the “pERK (MFI) in human CD45+ cells” value ([4]; PDX AML01-307) was 2273 MFI and 2265 MFI and 2049 MFI and the “pSTAT5 (MFI) in human CD45+ cells” value ([4]; PDX AML01-307) was 8952 MFI and 11167 MFI and 9167 MFI. For the same compound, the “pERK (MFI) in human CD45+ cells” value ([4]; PDX AML18) was 5026 MFI and 5676 MFI and 5643 MFI and 5242 MFI and 5439 MFI and 6959 MFI, the “pSTAT5 (MFI) in human CD45+ cells” value ([4]; PDX AML18) was 4926 MFI and 5695 MFI and 4653 MFI and the “HES1 (MFI) in human CD45+ cells” value ([5]; PDX ALL8) was 1836 MFI and 2160 MFI and 2094 MFI. The “pSTAT5 (MFI) in human CD45+ cells” value ([5]; PDX ALL8) was 2379 MFI and 2645 MFI and 2581 MFI, the “HES1 (MFI) in human CD45+ cells” value ([5]; PDX ETP12) was 8443 MFI and 7622 MFI and 8597 MFI and 6696 MFI and 10495 MFI and 10443 MFI and the “pSTAT5 (MFI) in human CD45+ cells” value ([5]; PDX ETP12) was 4191 MFI and 3709 MFI and 3790 MFI.
